Source: ChEMBL document CHEMBL2413072, “Synthesis and in vitro anticancer studies of novel C-2 arylidene congeners of lantadenes” (2013)

Legend:
Format in all cases: functional
DU-145 [1] = assay: Growth inhibition of human DU145 cells assessed as cell growth at 10^-7 M by sulforhodamine B assay; conditions: read-out: Activity
HOP-92 [2] = assay: Growth inhibition of human HOP92 cells assessed as cell growth at 10^-4 M by sulforhodamine B assay; conditions: read-out: Activity
KM12 [3] = assay: Growth inhibition of human KM12 cells assessed as cell growth at 10^-6 M by sulforhodamine B assay; conditions: read-out: Activity
NCI-H460 = assay: Growth inhibition of human NCI-H460 cells assessed as cell growth at 10^-8 M by sulforhodamine B assay; conditions: read-out: Activity
NCI-H322M = assay: Growth inhibition of human NCI-H322M cells assessed as cell growth at 10^-6 M by sulforhodamine B assay; conditions: read-out: Activity
UACC-257 [4] = assay: Growth inhibition of human UACC257 cells assessed as cell growth at 10^-8 M by sulforhodamine B assay; conditions: read-out: Activity
OVCAR-4 [5] = assay: Growth inhibition of human OVCAR4 cells by sulforhodamine B assay
HOP-92 [6] = assay: Growth inhibition of human HOP92 cells by sulforhodamine B assay
786-0 = assay: Growth inhibition of human 786-0 cells assessed as cell growth at 10^-4 M by sulforhodamine B assay; conditions: read-out: Activity
SN12C = assay: Growth inhibition of human SN12C cells assessed as cell growth at 10^-8 M by sulforhodamine B assay; conditions: read-out: Activity
MOLT-4 [7] = assay: Growth inhibition of human MOLT4 cells assessed as cell growth at 10^-8 M by sulforhodamine B assay; conditions: read-out: Activity
SW-620 = assay: Growth inhibition of human SW620 cells assessed as cell growth at 10^-7 M by sulforhodamine B assay; conditions: read-out: Activity
MDA-MB-435 = assay: Growth inhibition of human MDA-MB-435 cells assessed as cell growth at 10^-4 M by sulforhodamine B assay; conditions: read-out: Activity
M14 = assay: Growth inhibition of human M14 cells assessed as cell growth at 10^-7 M by sulforhodamine B assay; conditions: read-out: Activity
DU-145 [8] = assay: Growth inhibition of human DU145 cells assessed as cell growth at 10^-8 M by sulforhodamine B assay; conditions: read-out: Activity
HL-60(TB) = assay: Growth inhibition of human HL-60(TB) cells assessed as cell growth at 10^-7 M by sulforhodamine B assay; conditions: read-out: Activity
CCRF-CEM = assay: Growth inhibition of human CCRF-CEM cells assessed as cell growth at 10^-7 M by sulforhodamine B assay; conditions: read-out: Activity
A498 = assay: Growth inhibition of human A498 cells assessed as cell growth at 10^-6 M by sulforhodamine B assay; conditions: read-out: Activity
[9] = Growth inhibition of human HCC2998 cells assessed as cell growth at 10^-8 M by sulforhodamine B assay; conditions: HCC 2998, read-out: Activity
SK-MEL-5 = assay: Growth inhibition of human SK-MEL-5 cells by sulforhodamine B assay
ACHN = assay: Growth inhibition of human ACHN cells assessed as cell growth at 10^-6 M by sulforhodamine B assay; conditions: read-out: Activity
KM12 [10] = assay: Growth inhibition of human KM12 cells assessed as cell growth at 10^-4 M by sulforhodamine B assay; conditions: read-out: Activity
UACC-257 [11] = assay: Growth inhibition of human UACC257 cells by sulforhodamine B assay
MOLT-4 [12] = assay: Growth inhibition of human MOLT4 cells assessed as cell growth at 10^-7 M by sulforhodamine B assay; conditions: read-out: Activity
SK-MEL-2 = assay: Growth inhibition of human SK-MEL-2 cells by sulforhodamine B assay
SNB-75 = assay: Growth inhibition of human SNB75 cells assessed as cell growth at 10^-7 M by sulforhodamine B assay; conditions: read-out: Activity
Malme-3M [13] = assay: Growth inhibition of human MALME-3M cells assessed as cell growth at 10^-6 M by sulforhodamine B assay; conditions: read-out: Activity
[14] = Growth inhibition of human Hs 578T cells by sulforhodamine B assay
MDA-MB-231 [15] = assay: Growth inhibition of human MDA-MB-231 cells by sulforhodamine B assay
OVCAR-8 = assay: Growth inhibition of human OVCAR8 cells by sulforhodamine B assay
NCI-H226 = assay: Growth inhibition of human NCI-H226 cells assessed as cell growth at 10^-8 M by sulforhodamine B assay; conditions: read-out: Activity
MDA-MB-231 [16] = assay: Growth inhibition of human MDA-MB-231 cells assessed as cell growth at 10^-8 M by sulforhodamine B assay; conditions: read-out: Activity
[17] = Growth inhibition of human NCI-ADR-RES cells assessed as cell growth at 10^-8 M by sulforhodamine B assay; conditions: read-out: Activity
RXF 393 = assay: Growth inhibition of human RXF393 cells assessed as cell growth at 10^-7 M by sulforhodamine B assay; conditions: read-out: Activity
MOLT-4 [18] = assay: Growth inhibition of human MOLT4 cells by sulforhodamine B assay
OVCAR-4 [19] = assay: Growth inhibition of human OVCAR4 cells assessed as cell growth at 10^-8 M by sulforhodamine B assay; conditions: read-out: Activity
Malme-3M [20] = assay: Growth inhibition of human MALME-3M cells by sulforhodamine B assay
[21] = Growth inhibition of human NCI-ADR-RES cells assessed as cell growth at 10^-4 M by sulforhodamine B assay; conditions: read-out: Activity
[22] = read-out: LC50 (the source's name)
[23] = read-out: pLC50 (the source's name) (converted)

With `CC(C)=CC(=O)O[C@@H]1CC(C)(C)C[C@H]2C3=CC[C@@H]4[C@@]5(C)CC[C@H](O)C(C)(C)[C@@H]5CC[C@@]4(C)[C@]3(C)CC[C@@]12C(=O)O` [Reduced Lantadene B] the growth at 0.1 µM (DU-145 [1]) was 100%, the growth at 100 µM (HOP-92 [2]) was -81% and the growth at 1 µM (KM12 [3]) was 48%. It also gave a growth at 0.01 µM (NCI-H460) of 105%, a growth at 1 µM (NCI-H322M) of 94% and a growth at 0.01 µM (UACC-257 [4]) of 96%. For the same compound, the GI50 (OVCAR-4 [5]; read-out: GI50) was 8.59 µM, the CC50 (OVCAR-4 [5]; [22]) was > 100 µM and the TGI (OVCAR-4 [5]; read-out: TGI) was 35.6 µM. For the same compound, the GI50 (OVCAR-4 [5]; read-out: pGI50 (converted)) was 8.51 µM, the CC50 (OVCAR-4 [5]; [23]) was > 100 µM and the TGI (OVCAR-4 [5]; read-out: pTGI (converted)) was 35.5 µM. The GI50 (HOP-92 [6]; read-out: GI50) was 1.51 µM, the CC50 (HOP-92 [6]; [22]) was 16.3 µM and the TGI (HOP-92 [6]; read-out: TGI) was 4.23 µM. For the same compound, the GI50 (HOP-92 [6]; read-out: pGI50 (converted)) was 1.51 µM, the CC50 (HOP-92 [6]; [23]) was 16.2 µM and the TGI (HOP-92 [6]; read-out: pTGI (converted)) was 4.27 µM. It also gave a growth at 100 µM (786-0) of -73%, a growth at 0.01 µM (SN12C) of 101% and a growth at 0.01 µM (MOLT-4 [7]) of 106%. The growth at 0.1 µM (SW-620) was 95%, the growth at 100 µM (MDA-MB-435) was -26% and the growth at 0.1 µM (M14) was 90%. For the same compound, the growth at 0.01 µM (DU-145 [8]) was 101%, the growth at 0.1 µM (HL-60(TB)) was 105% and the growth at 0.1 µM (CCRF-CEM) was 102%. It also gave a growth at 1 µM (A498) of 79%, a growth at 0.01 µM [9] of 99% and a GI50 (SK-MEL-5; read-out: GI50) of 2.86 µM. It also gave a CC50 (SK-MEL-5; [22]) of 66.7 µM, a TGI (SK-MEL-5; read-out: TGI) of 16.5 µM and a GI50 (SK-MEL-5; read-out: pGI50 (converted)) of 2.88 µM. For the same compound, the CC50 (SK-MEL-5; [23]) was 66.1 µM, the TGI (SK-MEL-5; read-out: pTGI (converted)) was 16.6 µM and the growth at 1 µM (ACHN) was 64%. For the same compound, the growth at 100 µM (KM12 [10]) was -47%, the GI50 (UACC-257 [11]; read-out: GI50) was 14.5 µM and the CC50 (UACC-257 [11]; [22]) was > 100 µM. For the same compound, the TGI (UACC-257 [11]; read-out: TGI) was 45.6 µM, the GI50 (UACC-257 [11]; read-out: pGI50 (converted)) was 14.5 µM and the CC50 (UACC-257 [11]; [23]) was > 100 µM. The TGI (UACC-257 [11]; read-out: pTGI (converted)) was 45.7 µM, the growth at 0.1 µM (MOLT-4 [12]) was 94% and the GI50 (SK-MEL-2; read-out: GI50) was 9.34 µM. It also gave a CC50 (SK-MEL-2; [22]) of 67 µM, a TGI (SK-MEL-2; read-out: TGI) of 25.4 µM and a GI50 (SK-MEL-2; read-out: pGI50 (converted)) of 9.33 µM. The CC50 (SK-MEL-2; [23]) was 67.6 µM, the TGI (SK-MEL-2; read-out: pTGI (converted)) was 25.7 µM and the growth at 0.1 µM (SNB-75) was 89%. For the same compound, the growth at 1 µM (Malme-3M [13]) was 104%, the GI50 ([14]; read-out: GI50) was 3.04 µM and the CC50 [14, 22] was > 100 µM. For the same compound, the TGI ([14]; read-out: TGI) was 12.3 µM, the GI50 ([14]; read-out: pGI50 (converted)) was 3.02 µM and the CC50 [14, 23] was > 100 µM. The TGI ([14]; read-out: pTGI (converted)) was 12.3 µM, the GI50 (MDA-MB-231 [15]; read-out: GI50) was 4.56 µM and the CC50 (MDA-MB-231 [15]; [22]) was 54.7 µM. The TGI (MDA-MB-231 [15]; read-out: TGI) was 19.4 µM, the GI50 (MDA-MB-231 [15]; read-out: pGI50 (converted)) was 4.57 µM and the CC50 (MDA-MB-231 [15]; [23]) was 55 µM. The TGI (MDA-MB-231 [15]; read-out: pTGI (converted)) was 19.5 µM, the GI50 (OVCAR-8; read-out: GI50) was 4.68 µM and the CC50 (OVCAR-8; [22]) was > 100 µM. For the same compound, the TGI (OVCAR-8; read-out: TGI) was 28.9 µM, the GI50 (OVCAR-8; read-out: pGI50 (converted)) was 4.68 µM and the CC50 (OVCAR-8; [23]) was > 100 µM. The TGI (OVCAR-8; read-out: pTGI (converted)) was 28.8 µM, the growth at 0.01 µM (NCI-H226) was 96% and the growth at 0.01 µM (MDA-MB-231 [16]) was 111%. It also gave a growth at 0.01 µM [17] of 107%, a growth at 0.1 µM (RXF 393) of 95% and a GI50 (MOLT-4 [18]; read-out: GI50) of 3.02 µM. For the same compound, the CC50 (MOLT-4 [18]; [22]) was > 100 µM, the TGI (MOLT-4 [18]; read-out: TGI) was 20.6 µM and the GI50 (MOLT-4 [18]; read-out: pGI50 (converted)) was 3.02 µM. For the same compound, the CC50 (MOLT-4 [18]; [23]) was > 100 µM, the TGI (MOLT-4 [18]; read-out: pTGI (converted)) was 20.4 µM and the growth at 0.01 µM (OVCAR-4 [19]) was 100%. For the same compound, the GI50 (Malme-3M [20]; read-out: GI50) was 13.7 µM, the CC50 (Malme-3M [20]; [22]) was > 100 µM and the TGI (Malme-3M [20]; read-out: TGI) was 38.6 µM. The GI50 (Malme-3M [20]; read-out: pGI50 (converted)) was 13.8 µM, the CC50 (Malme-3M [20]; [23]) was > 100 µM and the TGI (Malme-3M [20]; read-out: pTGI (converted)) was 38.9 µM. The growth at 100 µM [21] was -30%.
